Experimental data published in patent US5885786A, “Methods for screening of substances for inhibition of multidrug resistance” (priority 1996, dated 1999).
“Also recorded” adds a separate entry of the source.

Columns and labels:
Format in all cases: cell-based
[1] = system: glycosylceramide synthesis in MCF-7-AdrR cells; test: Glycosylceramide levels in MDR cells following drug treatment, [3H]serine 48 h; settings: FIG. 15B
[2] = system: human melanoma cell lines (M101, M10 and M24); test: Formation of glycosylceramide in human metastatic melanoma cell lines M101, M10 and M24; settings: 5.0 μM tamoxifen, 24 h, FIG. 17
Source text: FIG. 17. […] Identical aliquots of total lipid extract were applied to TLC, and the plate was exposed for autoradiography.

MCF-7-AdrR cells = test: Temporal pattern of tamoxifen influence on total lipid, glycosylceramide, sphingomyelin and ceramide metabolism
Description: FIG. 13A, FIG. 13B and FIG. 13C. Temporal Pattern for the Influence of Tamoxifen on Total Lipid, Glycosylceramide, and Sphingomyelin Metabolism in MCF-7-AdrR Cells. Cells, preincubated in the absence or presence of tamoxifen (20 μM) for 30 min, were labeled by addition of 1.0 μCi/ml [^3 H]palmitic acid for the times shown using RPMI-1640 medium containing 5% FBS. At each time point, cultures were washed with PBS and lipids were extracted as described under Example I. Aliquots of the labeling medium were counted directly by liquid scintillation spectrometry to determine [^3 H]palmitic acid uptake and incorporation into total cell lipids (FIG. 13A). Glycosylceramide (FIG. 13B) and sphingomyelin (FIG. 13C) levels were evaluated by TLC using solvent system I and II, respectively, followed by quantitation of radiolabel in the relevant regions as detailed in Example I. Results are the mean±SEM of duplicate determinations from two separate experiments.
FIG. 14A and FIG. 14B. Effect of Tamoxifen on Ceramide Synthesis and Glycosylation in MCF-7-AdrR Cells. FIG. 14: A Influence of tamoxifen on ceramide synthesis. The experiment was conducted as described in the legend to FIG. 13. Aliquots of the total lipid extract were based-hydrolyzed as described in Example I, separated by TLC using solvent system IV, and the resolved [^3 H]ceramide was quantitated by liquid scintillation spectrometry. Results are the mean±SEM of duplicate determinations from two separate experiments. FIG. 14B: Effect of tamoxifen on glycosylation of C6 -ceramide. Cells, in 100×20 mm culture dishes, were preincubated without or with 5.0 μM tamoxifen for 30 min, followed by incubation without or with 5.0 μM C6 -ceramide:BSA (prepared at a 1:1 molar ratio) for an additional 30 min. Cells were labeled thereafter with 1.0 μCi/ml [^3 H]galactose for 24 h. [3H]Galactose uptake was determined and found to be similar in all experimental points (1.0×10^6 cpm/dish). The total extracted lipid was applied to TLC separation and [^3 H]glycosphingolipids were analyzed as described in the legend to FIG. 10. The autoradiography of a representative chromatogram is shown.
Lipid analysis was carried out by TLC using solvent system I: chloroform/methanol/ammonium hydroxide (40:10:1, v/v) for glycosylceramide separation, solvent system II: chloroform/methanol/water (60:40:8, v/v) for sphingoglycolipid separation, or solvent system III: chloroform/methanol/acetic acid/water (50:30:7:3, v/v) for sphingomyelin separation. For determination of ceramides, an aliquot of the chloroform-soluble lipids was base-hydrolyzed in 0.1N KOH in methanol for 1 h at 37° C., lipids were re-extracted, and separated by TLC using solvent system IV: hexane/diethyl ether/formic acid (60:40:1, v/v).
Radiochromatograms were sprayed with EN^3 HANCE, and exposed for 3-7 days for autofluorgraphy. TLC areas, aligned with bands on the autoradiographs or with iodine-stained commercial lipid standards, were scraped from the plate. Water (0.5 ml) was added to the plate scrapings followed by 4.5 ml of EcoLume counting fluid, and the samples were quantitated by liquid scintillation spectrometry.

CC/C(=C(\c1ccccc1)c1ccc(OCCN(C)C)cc1)c1ccccc1 [tamoxifen]
inhibition of glycosylceramide synthesis (in words) ([1]; 5.0 μM, alone or with adriamycin 2.5 μM): greatly retarded
inhibition of glycosylceramide production, tamoxifen added to adriamycin ([1]; tamoxifen 5.0 μM + adriamycin 2.5 μM): 72%
inhibition of glucosylceramide formation (in words) [2]: inhibition of glucosylceramide formation
inhibition of glycosylceramide synthesis within 4 h (in words) (MCF-7-AdrR cells; tamoxifen 20 μM, 4 h time frame, FIG. 13B): almost completely inhibited
uptake and incorporation of [3H]palmitic acid (in words) (MCF-7-AdrR cells; tamoxifen 20 μM, FIG. 13A): very similar
onset of glycosylceramide formation inhibition (MCF-7-AdrR cells; tamoxifen 20 μM, FIG. 13B): 15 min
time of half-maximal influence on glycosylceramide formation (MCF-7-AdrR cells; tamoxifen 20 μM, FIG. 13B): 45 min
sphingomyelin synthesis (in words) (MCF-7-AdrR cells; tamoxifen 20 μM, FIG. 13C): not influenced; also recorded: not altered
level of ceramide / ceramide synthesis (in words) (MCF-7-AdrR cells; tamoxifen, FIG. 14A): remained unchanged; also recorded: very similar
